Measurements taken from patent US12152038B2, “Vasopressin receptor antagonists and products and methods related thereto” (Neumora Therapeutics, Inc., priority 2017, dated 2024).
Like-named read-outs stand apart in the source and are kept apart here.

Experiments:
V1a receptors = target: T1, V1a receptors (Rattus norvegicus, UniProt P30560); experiment: AVP induced phospho-ERK measurement in rat choroid plexus (RCP) cells; format: cell-based; conditions: RCP cells stimulated with AVP, pERK1/2 to total ERK1/2 ratio
T1 construct: Rat choroid plexus (RCP) cell lines express functional V1a receptors; endogenous in cells; host or cells: rat choroid plexus (RCP) cell line, RCP P9(18)
T1 sequence (P30560 whole entry): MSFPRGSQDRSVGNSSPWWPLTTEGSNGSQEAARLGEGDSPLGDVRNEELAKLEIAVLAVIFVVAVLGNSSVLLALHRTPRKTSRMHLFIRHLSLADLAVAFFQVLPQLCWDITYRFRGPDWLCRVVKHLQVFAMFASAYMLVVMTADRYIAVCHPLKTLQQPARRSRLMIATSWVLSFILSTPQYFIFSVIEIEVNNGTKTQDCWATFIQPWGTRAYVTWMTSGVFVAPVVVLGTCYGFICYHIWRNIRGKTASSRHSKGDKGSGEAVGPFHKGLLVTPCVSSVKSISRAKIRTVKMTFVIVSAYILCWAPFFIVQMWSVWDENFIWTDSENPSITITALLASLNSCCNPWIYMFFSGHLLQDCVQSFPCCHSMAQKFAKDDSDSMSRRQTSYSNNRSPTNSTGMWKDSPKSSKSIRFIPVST
Description: Rat choroid plexus (RCP) cell lines express functional V1a receptors measured by increased calcium concentrations in response to V1a receptor agonists (Battle et al., Biochem. Biophys. Res. Comm. 2000).
RCP P9(18) cells were seeded 30K/well, in 100 μl growth medium containing 10% FBS in polystyrene 96-well plates and incubated at 37° C., 5% CO2 and incubated overnight. The following day, the growth medium was replaced with 50 μl pre-warmed HBSS containing 20 mM HEPES and the cells were incubated at 37° C., 5% CO2 for 1.5 hrs. 1 mM AVP (Sigma V9879) was freshly prepared in distilled water in a glass vial and diluted to 3× concentrations in HBSS containing 20 mM HEPES and 0.1% BSA in glass vials and kept on ice. […] Final concentrations of AVP: 10, 100 or 1000 nM. […] Cells were lysed with 25 μl 4×CST lysis buffer containing protease and phosphatase inhibitors, PMSF and SDS and then stored at −80° C., for 48 h. The lysates were thawed, centrifuged at 2000 g for 30 min at 4° C. and 40 μl supernatants assayed for pERK1/2 (Thr202/Tyr204; Thr185/Tyr187) and total ERK1/2 using MSD kit K15107D. The MSD ECL data for the lysates were corrected for no cell blanks, then phospho-protein levels expressed as a ratio to the total ERK1/2 level. The ratios were expressed as fold-change from the vehicle-treated control at each timepoint.

Male CD-1 mice = experiment: AVP induced scratching, digging and grooming behavior in mouse; format: in vivo; conditions: 100 mg/kg, po; AVP i.c.v.; 15 minutes observation
Description: Administration of Arginine-Vasopressin (AVP) intracerebroventricularly (i.c.v.) elicits characteristic scratching, digging and grooming behavior in mice that can be measured readily and is sensitive to blockade with vasopressin antagonists (Meisenberg, Ann N Y Acad Sci. 525:257-69, 1988; Bleickardt et. al., Psychopharmacology (Berl). 202(4):711-8, 2009).
Male CD-1 mice (Charles River Germany) weighing 22-25 g upon the study in-life were used for this study. Animals were housed in groups of 4-5 per cage in standard temperature (22±1° C.) and light-controlled environment (lights on from 7 am to 8 pm), with ad libitum access to food and water. Prior to commencing any procedures to the mice, they were allowed to habituate in the vivarium for a minimum of 7 days. Anesthesia was induced in a plexiglass chamber for 2-3 min with 5% isoflurane and maintained through a snout mask with 1-2% isoflurane thereafter. A homeothermic blanket system with a rectal probe was used to monitor and maintain the animal's body temperature at 37.0° C.±1.5° C. during the operation. Anesthetized mice were placed in a stereotaxic apparatus and skin between the ears shaved and disinfected with povidone-iodine solution (Betadine). A 10-μl Hamilton syringe with 28-gauge needle was used for the i.c.v. injections. All animals receive identical AVP injections (3.689 μM) or sterile saline (0.9% sodium chloride solution) into the right lateral ventricle at the following coordinates: AP=+0.5 mm; ML=+1.0 mm; DV=−2.5 mm (approximately from bregma). The actual coordinates were calculated by the distance from the point in midline between the eyes and no skin incision was made. […]
Mice were observed and video-recorded for 15 minutes following AVP/saline administration and behaviors were measured (in seconds) and a cumulative time was calculated. […] Using this assay, balovaptan (100 and 300 mg/kg, po), JNJ-17308616 (30, 100 mg/kg, po) and Compound No. 1-83B (100, 300, 500 mg/kg, po) were evaluated for antagonist activity to AVP-induced scratching behaviors.

[1] = target: T2, human Arginine Vasopressin Receptor 1a (AVPR1a) (Homo sapiens, UniProt P37288); experiment: Vasopressin V1a receptor antagonist assay (FLIPR calcium, CHO-AVPR1a cells); format: cell-based
T2 construct: expressed in transfected cells; host or cells: CHO (CHO-AVPR1a, kept under G418 selection)
T2 sequence (P37288 whole entry): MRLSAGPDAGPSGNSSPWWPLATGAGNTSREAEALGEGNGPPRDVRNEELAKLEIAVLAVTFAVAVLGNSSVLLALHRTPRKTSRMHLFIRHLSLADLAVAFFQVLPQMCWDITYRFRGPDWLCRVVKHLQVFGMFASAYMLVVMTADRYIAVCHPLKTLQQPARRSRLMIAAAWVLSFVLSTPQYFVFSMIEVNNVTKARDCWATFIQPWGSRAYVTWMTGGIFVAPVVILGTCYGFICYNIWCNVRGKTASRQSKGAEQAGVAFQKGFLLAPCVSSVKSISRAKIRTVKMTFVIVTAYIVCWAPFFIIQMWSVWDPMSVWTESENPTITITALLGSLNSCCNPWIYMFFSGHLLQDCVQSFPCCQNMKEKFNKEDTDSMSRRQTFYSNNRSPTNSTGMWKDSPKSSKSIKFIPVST
How it was run: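 CHO cells expressing human AVPR1a were loaded with Calcium-6 dye and preincubated with compound for 15 min at 37° C. Cells were then challenged with AVP at its daily-determined EC80, and FLIPR fluorescence was read. Compounds were tested in duplicate as 10-point 1:3 dilutions from a top final concentration of 3 μM.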

[2] = target: T3, human Oxytocin Receptor (hOTR) (Homo sapiens, UniProt P30559); experiment: Oxytocin receptor (OTR) antagonist assay (FLIPR calcium, CHEM-1-hOTR cells); format: cell-based
T3 construct: host or cells: CHEM-1 (ready-to-assay frozen cells)
T3 sequence (P30559 1-389): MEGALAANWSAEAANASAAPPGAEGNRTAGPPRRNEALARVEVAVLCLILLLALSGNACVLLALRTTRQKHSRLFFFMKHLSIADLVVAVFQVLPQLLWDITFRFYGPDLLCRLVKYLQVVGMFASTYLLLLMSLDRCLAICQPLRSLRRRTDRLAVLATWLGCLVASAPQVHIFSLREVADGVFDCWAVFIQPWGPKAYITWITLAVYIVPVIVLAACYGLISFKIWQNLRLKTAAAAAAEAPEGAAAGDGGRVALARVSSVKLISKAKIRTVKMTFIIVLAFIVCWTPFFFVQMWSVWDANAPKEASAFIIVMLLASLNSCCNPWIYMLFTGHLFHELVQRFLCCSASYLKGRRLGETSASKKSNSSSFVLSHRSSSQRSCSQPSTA
Description: This assay was performed in CHEM-1 cells expressing the human Oxytocin Receptor (hOTR) to determine the inhibitory effect of the compounds of the invention on the human Oxytocin receptor. Oxytocin evokes an increase in intracellular calcium in CHEM-1-hOTR cells which is measured in a fluorescence assay on the FLIPR^TETRA using calcium sensitive dyes. Test compounds were assessed for their ability to affect the magnitude of the response to oxytocin, with antagonists showing a concentration-dependent reduction in the oxytocin-mediated fluorescence.
CHEM-1-hOTR ready was used to assay frozen cells (Eurofins #HTS09ORTA) which are supplied with a proprietary Media Component.
Day 1 of the assay: Cells were thawed in a 37° C. water bath and diluted with the supplied Media Component to a final volume of 10 ml. The cell suspension was centrifuged at 1000 rpm for 3 min at room temperature and the supernatant was discarded. The cell pellet was resuspended in Media Component (10.5 ml) and the cells (25 μL) were dispensed into a poly-D-lysine coated black, clear bottomed, 384-well plate. The plates were incubated overnight at 37° C., 5% CO2.
Day 2: At the start of each assay day the potency of oxytocin was assessed and an EC80 concentration was determined for subsequent compound profiling. Assays were performed using a two-step addition protocol on the FLIPR^TETRA; first addition of 5 μl of control or test compound at 10× final in assay buffer with 15 min incubation at 37° C., 5% CO2 followed by 10 μl of oxytocin at 6× final concentration in assay buffer. Changes in fluorescence were monitored for 3 min after both additions on the FLIPR^TETRA using 470-495 nm excitation and 515-575 nm emission wavelengths. The assay buffer consisted of HBSS (+Ca/+Mg) supplemented with 20 mM HEPES, and for the preparation of the oxytocin agonist only, 0.1% w/v bovine serum albumin. The assay was initiated by the removal of growth media from the cells and replaced with 45 μl of Calcium-6 dye (Molecular Devices) prepared at 1× in assay buffer. Cells were loaded with dye for 60-90 min at 37° C., 5% CO2 before initiation of the FLIPR^TETRA protocol. […] For compound profiling, test compounds were first serially diluted in DMSO (10-point curve, 1:3 dilutions) then diluted 33.3-fold in assay buffer prior to addition to the dye loaded cells on the FLIPR^TETRA. At the end of the incubation period 10 μl of oxytocin in assay buffer containing 0.1% BSA was added at the previously determined EC80 concentration.
In-plate controls for the assay included a L-368,899 concentration-response curve as the reference OTR antagonist and an oxytocin concentration-response curve to confirm the reproducibility of the EC80 used for the compound challenge.

[3] = Wild-type MDCK permeability and efflux assay (Papp, efflux ratio); format: in vitro ADME; conditions: dog, pH 7.4, wild-type MDCK cells; for efflux ratio at 1 h, 10 μM: Papp B>A/Papp A>B, read-out: ER WT (Efflux Ratio)
Description: (§1) The MDR1-MDCK effective efflux assay was performed as described in the BioFocus Standard Operating Procedure, ADME-SOP-56. Both wild-type (WT) and MDR1-MDCK cells (Solvo Biotechnology) were seeded onto 24-well Transwell plates at 2.35×10^5 cells per well and used in confluent monolayers after a 3 day culture at 37° C. under 5% CO2. For both cell types, test and control compounds (propranolol, vinblastine) were added (10 μM, 0.1% DMSO final, n=2) to donor compartments of the Transwell plate assembly in assay buffer (Hanks balanced salt solution supplemented with 25 mM HEPES, adjusted to pH 7.4) for both apical to basolateral (A>B) and basolateral to apical (B>A) measurements. Incubations were performed at 37° C., with samples removed from both donor and acceptor chambers at T=0 and 1 hour and compound analysed by mass spectrometry (LC-MS/MS) including an analytical internal standard.
(§2) Apparent permeability (Papp) values were determined from the relationship: Papp=[CompoundAcceptor T=end]×V Acceptor/([Compound Donor T=0]×V Donor)/incubation time×V Donor/Area×60×10^−6 cm/s
(§3) In this equation, V is the volume of each Transwell compartment (apical 125 μL, basolateral 600 μL), and concentrations are the relative MS responses for compound (normalized to internal standard) in the donor chamber before incubation and acceptor chamber at the end of the incubation, and Area is the area of cells exposed for drug transfer (0.33 cm^2).
(§4) Efflux ratios (Papp B>A/Papp A>B) were calculated for each compound from the mean Papp values in each direction for both wild-type and MDR1-MDCK cells.
(§5) In order to confirm the involvement of MDR1 in any efflux seen, an “effective efflux ratio” (EER) was calculated by comparing compound efflux ratios (ER) in the two cell types by the following equation: EER=ER(MDR1-MDCK)/ER(wild-type MDCK)
(§6) This ratio illustrates the effect of the over-expressed MDR1 normalised for the background movement of compound through the wild-type cells.
(§7) Lucifer Yellow (LY) was added to the apical buffer in all wells to assess viability of the cell layer. […] Recoveries<50% indicates compound solubility, stability or binding issues, thereby reducing the reliability of a result.
(§8) The inherent ability of a potential drug molecule to penetrate the blood brain barrier and avoid efflux by transporters expressed in the brain, can be roughly correlated with the Papp(A-B) and the efflux ratio (as defined above), respectively. A potential drug molecule with an apparent permeability<7 (10^−6 cm/sec) has low permeability (+), >7 (10^−6 cm/sec) but <10 (10^−6 cm/sec) has moderate permeability (++), >10 (10^−6 cm/sec) but <20 (10^−6 cm/sec) has good permeability (+++), and >20 (10^−6 cm/sec) is highly permeable (++++). High permeability in the WT and MDCK II cell permeability assay increases the probability of blood brain barrier penetration and access to the CNS. A potential drug molecule in the above assay system with an efflux ratio or effective efflux ratio of <1 has low probability of being an efflux substrate (++++), >1 but <2 has moderate probability of being an efflux substrate (+++), >2 but <3 has has an increased probability of being an efflux substrate (++), and >3 has a high probability of being an efflux substrate (+). If a potential drug molecule is an efflux substrate, the molecule will have a low probability of reaching exposures in the brain (site of action) that will result in efficacious levels of receptor occupancy.

MDR1 (P-glycoprotein) = target: T4, MDR1 (P-glycoprotein) (Homo sapiens, UniProt P08183); experiment: MDR1-MDCK permeability and efflux assay (Papp, efflux ratio, effective efflux ratio); format: in vitro ADME; conditions: dog; for Papp A→B at 1 h, 10 μM: pH 7.4, read-out: Papp AB MDR1
T4 construct: host or cells: MDCK (MDR1-MDCK; wild-type MDCK as comparator)
T4 sequence (P08183 whole entry): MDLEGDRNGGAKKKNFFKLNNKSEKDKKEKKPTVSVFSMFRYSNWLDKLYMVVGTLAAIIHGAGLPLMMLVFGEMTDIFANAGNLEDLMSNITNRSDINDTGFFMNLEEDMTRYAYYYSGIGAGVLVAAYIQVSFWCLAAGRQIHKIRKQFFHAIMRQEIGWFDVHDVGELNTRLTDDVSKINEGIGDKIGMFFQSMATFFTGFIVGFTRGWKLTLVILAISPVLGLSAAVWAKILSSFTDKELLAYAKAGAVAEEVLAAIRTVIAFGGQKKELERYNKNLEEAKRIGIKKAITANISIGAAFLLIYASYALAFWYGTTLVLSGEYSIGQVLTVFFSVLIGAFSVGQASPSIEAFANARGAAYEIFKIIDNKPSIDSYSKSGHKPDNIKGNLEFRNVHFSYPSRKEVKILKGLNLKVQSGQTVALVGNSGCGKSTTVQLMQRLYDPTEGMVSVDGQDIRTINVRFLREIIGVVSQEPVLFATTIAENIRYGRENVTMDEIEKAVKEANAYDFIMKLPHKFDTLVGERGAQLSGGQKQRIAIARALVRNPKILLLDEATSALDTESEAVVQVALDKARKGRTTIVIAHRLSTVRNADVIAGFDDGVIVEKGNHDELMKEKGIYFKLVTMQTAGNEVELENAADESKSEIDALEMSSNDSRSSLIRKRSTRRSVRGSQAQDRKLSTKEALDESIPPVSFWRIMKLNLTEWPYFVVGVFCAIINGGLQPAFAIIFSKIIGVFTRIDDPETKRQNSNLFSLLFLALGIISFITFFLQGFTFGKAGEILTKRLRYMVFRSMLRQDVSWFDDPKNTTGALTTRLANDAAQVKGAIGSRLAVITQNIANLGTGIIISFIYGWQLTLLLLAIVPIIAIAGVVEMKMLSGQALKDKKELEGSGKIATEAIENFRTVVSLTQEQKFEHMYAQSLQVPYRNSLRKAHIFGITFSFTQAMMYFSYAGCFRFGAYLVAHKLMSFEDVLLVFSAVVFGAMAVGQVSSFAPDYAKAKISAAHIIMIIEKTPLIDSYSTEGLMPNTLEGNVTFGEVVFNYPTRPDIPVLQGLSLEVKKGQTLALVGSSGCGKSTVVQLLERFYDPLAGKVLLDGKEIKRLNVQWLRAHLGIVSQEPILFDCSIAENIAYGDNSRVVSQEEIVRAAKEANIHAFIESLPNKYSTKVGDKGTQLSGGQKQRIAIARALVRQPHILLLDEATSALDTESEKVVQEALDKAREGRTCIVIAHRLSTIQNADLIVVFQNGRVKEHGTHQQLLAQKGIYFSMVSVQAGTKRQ
Description: as §1, §2, §3, §4, §5, §6, §7, §8

[4] = MDCK-MDR1, pH 7.4, ER(MDR1-MDCK)/ER(wild-type MDCK), read-out: EER (Effective Efflux Ratio)
[5] = MDCK-MDR1, pH 7.4, Papp B>A/Papp A>B, MDR1-MDCK cells, read-out: ER MDR1 (Efflux Ratio)

For `CN1Cc2cc(Cl)ccc2-n2c(nnc2[C@H]2CC[C@H](Oc3ccccn3)CC2)C1` [balovaptan, reference compound], the IC50 (V1a receptors; first study) was 10.9 nM, the IC50 (V1a receptors; second study) was 13.6 nM and the “antagonist activity to AVP-induced scratching behaviors” value (Male CD-1 mice) was “effective”.

With `Cc1cnc(N2CC3(CN(C(=O)N4c5ccc(Cl)cc5OCC4C)C3)C2)nc1` (single isomer, unassigned) [20-13-A] the IC50 [1] was no less than 1000 nM and the IC50 [2] was no less than 1000 nM.

Molecule `CC1COc2cc(F)ccc2N1C(=O)N1CC2(C1)CN(c1cc(C#N)ccn1)C2` (stereo not shown) [20-3] has a Papp A→B at 1 h, 10 μM [3] greater than 20 ×10⁻⁶ cm/s, an efflux ratio at 1 h, 10 μM [3] of 1 to 2 and an IC50 [1] of less than 100 nM. For the same molecule, the efflux ratio at 1 h, 10 μM (MDR1 (P-glycoprotein); [4]) was less than 1, the efflux ratio at 1 h, 10 μM (MDR1 (P-glycoprotein); [5]) was 1 to 2 and the Papp A→B at 1 h, 10 μM (MDR1 (P-glycoprotein); MDR1-MDCK cells) was greater than 20 ×10⁻⁶ cm/s.

With `Cc1nc(N2CC3(CN(C(=O)N4c5ccc(Cl)cc5OCC4C)C3)C2)ncc1F` (single isomer, unassigned) [20-7-A] the Papp A→B at 1 h, 10 μM [3] was greater than 20 ×10⁻⁶ cm/s, the efflux ratio at 1 h, 10 μM [3] was less than 1 and the IC50 [1] was no less than 1000 nM. For the same molecule, the efflux ratio at 1 h, 10 μM (MDR1 (P-glycoprotein); [4]) was less than 1, the efflux ratio at 1 h, 10 μM (MDR1 (P-glycoprotein); [5]) was less than 1 and the Papp A→B at 1 h, 10 μM (MDR1 (P-glycoprotein); MDR1-MDCK cells) was greater than 20 ×10⁻⁶ cm/s.

`CC1COc2cc(Cl)ccc2N1C(=O)N1CC2(C1)CN(c1ncccc1F)C2` (single isomer, unassigned) [1-57-B] showed an IC50 [1] of no less than 1000 nM and an IC50 [2] of less than 100 nM.
